One compound from US7662961B2, “N-phenylpyrazole derivatives as pesticides” (Merial Limited, priority 2004, dated 2010) can be followed below.

Turning to `CN(C(=S)N(C)c1c([S+]([O-])C(F)(F)F)c(C#N)nn1-c1c(Cl)cc(C(F)(F)F)cc1Cl)c1c([S+]([O-])C(F)(F)F)c(C#N)nn1-c1c(Cl)cc(C(F)(F)F)cc1Cl` (stereo not shown) [Compound 01-05, N,N′-Bis[3-cyano-1-(2,6-dichloro-4-trifluoromethylphenyl)-4-trifluoromethylsulfinylpyrazol-5-yl]-N,N′-dimethylthiourea], the melting point came to 118 °C.

One may read the melting point as the temperature, or range, at which the solid turns liquid.
